Columns and labels:
Assay in all cases: relative viability (nuclei count vs DMSO), 5 days (fraction); higher = more cells survive
NCI-H441 = test system: NCI-H441
Method in brief: (§1)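 For relative viability, nuclei counts in treated wells were divided by those in vehicle wells. Lung cancer cell lines had been pin-tool dosed in 1536-well plates the day after seeding and cultured for 5 days, then fixed and stained in one step (final 0.05% Triton X-100, 1% formaldehyde, 1 ug/ml Hoechst) and imaged at 4×. Doses were one drug alone or a fixed anchor-drug dose plus five library-drug doses (not always all listed) in √10 steps, and values are duplicate-plate medians.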

NCI-H650 = test system: NCI-H650
Method in brief: as §1

NCI-H23 = test system: NCI-H23
Method in brief: as §1

RERF-LC-KJ = test system: RERF-LC-KJ
Method in brief: as §1

NCI-H1355 = test system: NCI-H1355
Method in brief: as §1

NCI-H2009 = test system: NCI-H2009
Method in brief: as §1

LCLC-97TM1 = test system: LCLC-97TM1
Method in brief: as §1

NCI-H2023 = test system: NCI-H2023
Method in brief: as §1

NCI-H322M = test system: NCI-H322M
Method in brief: as §1

HOP-62 = test system: HOP-62
Method in brief: as §1

NCI-H1437 = test system: NCI-H1437
Method in brief: as §1

NCI-H2085 = test system: NCI-H2085
Method in brief: as §1

UMC-11 = test system: UMC-11
Method in brief: as §1

NCI-H1755 = test system: NCI-H1755
Method in brief: as §1

ChaGo-K-1 = test system: ChaGo-K-1
Method in brief: as §1

LOU-NH91 = test system: LOU-NH91
Method in brief: as §1

HCC-78 = test system: HCC-78
Method in brief: as §1

NCI-H2405 = test system: NCI-H2405
Method in brief: as §1

NCI-H2170 = test system: NCI-H2170
Method in brief: as §1

SK-MES-1 = test system: SK-MES-1
Method in brief: as §1

NCI-H1792 = test system: NCI-H1792
Method in brief: as §1

## Cc1cnc(-c2cnc(NCCNc3ccc(C#N)cn3)nc2-c2ccc(Cl)cc2Cl)[nH]1 + Nc1nc2[nH]cc(CCc3ccc(C(=O)N[C@@H](CCC(=O)O)C(=O)O)cc3)c2c(=O)[nH]1 [Pemetrexed] (partner 0.2 µM)
NCI-H441; first compound 0.08 µM
  relative viability: 0.271
NCI-H441; first compound 0.8 µM
  relative viability: 0.279
NCI-H441; first compound 2.53 µM
  relative viability: 0.236
NCI-H650; first compound 0.08 µM
  relative viability: 0.915
NCI-H650; first compound 0.253 µM
  relative viability: 0.92
NCI-H650; first compound 0.8 µM
  relative viability: 0.934
NCI-H650; first compound 2.53 µM
  relative viability: 0.904
NCI-H23; first compound 0.08 µM
  relative viability: 0.667
NCI-H23; first compound 0.253 µM
  relative viability: 0.634
NCI-H23; first compound 0.8 µM
  relative viability: 0.486
NCI-H23; first compound 2.53 µM
  relative viability: 0.438
RERF-LC-KJ; first compound 0.08 µM
  relative viability: 0.496
RERF-LC-KJ; first compound 0.253 µM
  relative viability: 0.458
RERF-LC-KJ; first compound 0.8 µM
  relative viability: 0.4
RERF-LC-KJ; first compound 2.53 µM
  relative viability: 0.424
NCI-H1355; first compound 0.08 µM
  relative viability: 1.06
NCI-H1355; first compound 0.253 µM
  relative viability: 0.907
NCI-H1355; first compound 0.8 µM
  relative viability: 0.991
NCI-H1355; first compound 2.53 µM
  relative viability: 0.915
NCI-H2009; first compound 0.08 µM
  relative viability: 0.966
NCI-H2009; first compound 0.253 µM
  relative viability: 0.983
NCI-H2009; first compound 0.8 µM
  relative viability: 0.982
NCI-H2009; first compound 2.53 µM
  relative viability: 0.95
LCLC-97TM1; first compound 0.08 µM
  relative viability: 0.176
LCLC-97TM1; first compound 0.253 µM
  relative viability: 0.183
LCLC-97TM1; first compound 0.8 µM
  relative viability: 0.173
LCLC-97TM1; first compound 2.53 µM
  relative viability: 0.188
NCI-H2023; first compound 0.08 µM
  relative viability: 0.283
NCI-H2023; first compound 0.253 µM
  relative viability: 0.229
NCI-H2023; first compound 0.8 µM
  relative viability: 0.199
NCI-H2023; first compound 2.53 µM
  relative viability: 0.261
NCI-H322M; first compound 0.08 µM
  relative viability: 0.603
NCI-H322M; first compound 0.253 µM
  relative viability: 0.584
NCI-H322M; first compound 0.8 µM
  relative viability: 0.548
NCI-H322M; first compound 2.53 µM
  relative viability: 0.562
HOP-62; first compound 0.08 µM
  relative viability: 0.26
HOP-62; first compound 0.253 µM
  relative viability: 0.339
HOP-62; first compound 0.8 µM
  relative viability: 0.312
HOP-62; first compound 2.53 µM
  relative viability: 0.236
NCI-H1437; first compound 0.08 µM
  relative viability: 0.3
NCI-H1437; first compound 0.253 µM
  relative viability: 0.328
NCI-H1437; first compound 0.8 µM
  relative viability: 0.268
NCI-H1437; first compound 2.53 µM
  relative viability: 0.269
NCI-H2085; first compound 0.08 µM
  relative viability: 1.01
NCI-H2085; first compound 0.253 µM
  relative viability: 0.852
NCI-H2085; first compound 0.8 µM
  relative viability: 0.885
NCI-H2085; first compound 2.53 µM
  relative viability: 0.955
UMC-11; first compound 0.08 µM
  relative viability: 0.867
UMC-11; first compound 0.253 µM
  relative viability: 0.772
UMC-11; first compound 0.8 µM
  relative viability: 0.822
UMC-11; first compound 2.53 µM
  relative viability: 0.735
NCI-H1755; first compound 0.08 µM
  relative viability: 0.403
NCI-H1755; first compound 0.253 µM
  relative viability: 0.437
NCI-H1755; first compound 0.8 µM
  relative viability: 0.421
NCI-H1755; first compound 2.53 µM
  relative viability: 0.565
ChaGo-K-1; first compound 0.08 µM
  relative viability: 0.252
ChaGo-K-1; first compound 0.253 µM
  relative viability: 0.265
ChaGo-K-1; first compound 0.8 µM
  relative viability: 0.259
ChaGo-K-1; first compound 2.53 µM
  relative viability: 0.248
LOU-NH91; first compound 0.08 µM
  relative viability: 0.376
LOU-NH91; first compound 0.253 µM
  relative viability: 0.383
LOU-NH91; first compound 0.8 µM
  relative viability: 0.399
LOU-NH91; first compound 2.53 µM
  relative viability: 0.349
HCC-78; first compound 0.08 µM
  relative viability: 0.893
HCC-78; first compound 0.253 µM
  relative viability: 0.839
HCC-78; first compound 0.8 µM
  relative viability: 0.897
HCC-78; first compound 2.53 µM
  relative viability: 0.938
NCI-H2405; first compound 0.08 µM
  relative viability: 1.09
NCI-H2405; first compound 0.253 µM
  relative viability: 1.06
NCI-H2405; first compound 0.8 µM
  relative viability: 1.04
NCI-H2405; first compound 2.53 µM
  relative viability: 0.468
NCI-H2170; first compound 0.08 µM
  relative viability: 0.253
NCI-H2170; first compound 2.53 µM
  relative viability: 0.25
SK-MES-1; first compound 0.08 µM
  relative viability: 0.932
SK-MES-1; first compound 0.253 µM
  relative viability: 0.895
SK-MES-1; first compound 0.8 µM
  relative viability: 0.977
SK-MES-1; first compound 2.53 µM
  relative viability: 0.99
NCI-H1792; first compound 0.08 µM
  relative viability: 0.946
NCI-H1792; first compound 0.253 µM
  relative viability: 0.728
NCI-H1792; first compound 0.8 µM
  relative viability: 0.775
NCI-H1792; first compound 2.53 µM
  relative viability: 0.724

From the supplement of paper PMC10307832
